# Test results as given in PMC10066322 (Scientific Reports, 2023).
# pIC50: −log10 of the molar value.
# Columns and labels:
# [1] = target: GCK (germinal center kinase); details: cited from earlier work
# [2] = target: T1, PARN1-430 (Homo sapiens, UniProt O95453); test: Gel assay of poly(A) RNA shortening by PARN1-430; assay type: biochemical
# T1 construct: expression of the C-terminal truncated protein (1-430 aa of PARN) was soluble; His tag (from the pCold I vector); made in house; host or cells: E. coli Rosetta 2 DE
# T1 sequence (O95453 1-430): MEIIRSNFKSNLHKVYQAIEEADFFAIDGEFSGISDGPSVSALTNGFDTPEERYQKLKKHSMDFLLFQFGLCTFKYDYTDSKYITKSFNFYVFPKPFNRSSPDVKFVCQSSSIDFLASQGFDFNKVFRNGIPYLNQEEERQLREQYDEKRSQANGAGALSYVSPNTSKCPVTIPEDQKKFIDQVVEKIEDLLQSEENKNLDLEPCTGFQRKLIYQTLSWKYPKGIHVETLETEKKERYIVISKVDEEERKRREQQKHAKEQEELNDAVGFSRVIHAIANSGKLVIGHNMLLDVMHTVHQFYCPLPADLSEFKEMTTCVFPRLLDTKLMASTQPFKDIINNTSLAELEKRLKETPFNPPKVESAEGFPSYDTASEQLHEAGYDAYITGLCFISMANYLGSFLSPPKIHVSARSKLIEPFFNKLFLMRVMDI
# Experimental: PARN1-430 was incubated with a fluorescently labeled RNA with a CCUUUCC sequence followed by a 9 nucleotide-long poly(A) tail and the reaction product was visualized on denaturing acrylamide gels. We observed that PARN removed the 3′ oligo(A) tail from the RNA substrate (Fig. 2c and d). […] Moreover, we observed that PARN is inhibited when treated with adenosine monophosphate (AMP), as has been reported previously.
# 1 µL of protein (73 nM as final concentration) (stock protein is diluted in 1× lysis buffer (HEPES KOH, pH 7.4, 30 mM, KOAc 100 mM, and Mg(Oac)2 2 mM) was added to 4 µL of 2.5× reaction buffer (Tris–HCl pH 7.4, 10 mM, KCl 50 mM, MgCl2 5 mM). If drug was added, reaction was pre-incubated with drugs for 10 min before 5 µL of RNA (5 µM as final concentration) was added. The reaction was incubated at 37 °C for 20 min. After the incubation, the reaction was either diluted with 2× loading buffer and heated to 95 °C for 5 min for gel or quenched by adding 10 µL of quencher solution (30 µM of 3′-BHQ labeled quench DNA in 1% SDS). Quenched reaction was incubated at room temperature for 10–60 min and fluorescence was measured using Fluorescein wavelength measurement.
# 15% TBE-Urea gel (Thermo Fisher Scientific) was prerun at 20W for 30 min. RNAs from the reaction was loaded into 15% TBE gels and run at 300 V for 35 min. The gel was visualized using iBright (Invitrogen FL1500).
# [3] = test system: hTR levels in Hela cells; test: hTR levels in Hela cells by RT-qPCR; assay type: cell-based, human; details: 50 µM, 2 days, RT-qPCR vs DMSO
# Experimental: (§1) 48 h after transfection/drug treatment, cells were collected for either RNA or protein analysis.
# Extracted total RNA was reverse transcribed using Mir-X miRNA first strand synthesis kit (Taraka, Cat # 638315) to make cDNA and qPCR was perfomred with iQ SYBR Green Supermix (BioRad, Cat. No. 1708880) with […] (forward primer) and […] (reverse primer) for hTR. The RNA levels were normalized using 5S rRNA as a housekeeping gene.
# [4] = test system: PARN activity in Hela cells; test: miR-21-5p levels in Hela cells by northern blotting (PARN inhibition in cells); assay type: cell-based, human; details: 2 days
# Experimental: as §1
# Total RNA was extracted from cell lysates using TriZol as per manufacturer’s protocol and DNAse treated. After quantification on Nanodrop, total RNA was separated on an acrylamide 7 M Urea gel. RNA was transferred to a nylon membrane (Nytran SPC, GE Healthcare) using semiwet transfer. After UV/EDC crosslinking, the blot was pre-hybridized and hybridized in PerfectHyb Plus Hybridization Buffer (Sigma Aldrich) at 42 °C. Northern probes have been previously described[11],[48]. After hybridization and washing in 2 × SSC 0.1% SDS wash buffer, blots were exposed to a cassette and imaged on a Typhoon FLA 9500 Phosphoimager. Band intensities were quantified using ImageJ and normalized to the U1 levels under each condition.
structure (smiles),measurement,setting,value
Cc1ccc(Nc2ncc3c(n2)N(C)C(=O)N(c2cc(NC(=O)c4cccc(C(F)(F)F)c4)ccc2C)C3)cn1 [GNF-7],pIC50,[1],8.10
same,"inhibitory effect on PARN1-430, gel assay",[2],most effective PARN1-430 inhibitor
same,hTR levels,[3],decreased
same,PARN inhibitor in cells,[4]; 50 μM,Yes
same,miR-21-5p levels compared to the controls,"[4]; 50 µM, northern blotting, DMSO control",~ 35%
